Experimental data published in PubChem BioAssay AID1605 (NINDS Approved Drug Screening Program, 2009).

These compounds were tested on Cells expressing FALS mutant SOD1, cell death protection (assay: protection against FALS mutant SOD1 cell death, familial ALS SOD1 mutant (AID 1605)).

Q: With `CC[C@@H]1C(=O)OC[C@@H]1Cc1cncn1C` as the compound, how does the EC50 read?
A: 3060 µM

Q: `CN1CC[C@]23c4c5ccc(O)c4O[C@H]2C(=O)CCC3[C@H]1C5` (some centres not stated) was tested. Which EC50 did it give?
A: 3410 µM

Q: How did the EC50 turn out when `NCC(CC(=O)O)c1ccc(Cl)cc1` (configuration not stated) was run?
A: 0.38 µM

Q: With `COC(=O)/C(=C1\OC(=O)C(c2ccccc2)C1=O)c1ccccc1` (configuration not stated) as the compound, how does the EC50 read?
A: 3940 µM

Q: `Cc1cc(C2CCCCC2)n(O)c(=O)c1` was tested. Which EC50 did it give?
A: 30.9 µM

Q: Which EC50 does the source give for `COc1cc(C)c2c(=O)cc(-c3ccccc3)oc2c1` here?
A: 45.8 µM

Q: Which EC50 does the source give for `NC[C@H]1O[C@H](O[C@H]2C(O[C@@H]3O[C@H](CO)[C@@H](O)[C@H]3O)[C@@H](O)[C@H](N)C[C@@H]2N)[C@H](N)[C@@H](O)[C@@H]1O` (some centres not stated) here?
A: 5790 µM

Q: For `NC(=O)NC1NC(=O)NC1=O` (configuration not stated), which EC50 is on record?
A: 0.0224 µM

Q: With `C[C@H]1C(=O)O[C@@H]2CCN3CC=C(COC(=O)[C@](C)(O)[C@]1(C)O)[C@H]23` as the compound, how does the EC50 read?
A: 239 µM

Q: `Oc1cc(O)c2c(c1)O[C@H](c1ccc(O)c(O)c1)[C@@H](O)C2` was tested. Which EC50 did it give?
A: 73.1 µM

Q: With `CC/C(=C(/CC)c1ccc(O)cc1)c1ccc(O)cc1` as the compound, how does the EC50 read?
A: 0.0327 µM

Q: `CC[C@@H](CO)NC(=O)[C@@H]1C=C2c3cccc4[nH]cc(c34)C[C@H]2N(C)C1` was tested. Which EC50 did it give?
A: 2890 µM

Q: For `CCC(=O)c1c(O)cc(O)cc1O`, which EC50 is on record?
A: 157 µM

Q: With `O=[N+]([O-])c1cc([As](=O)(O)O)ccc1O` as the compound, how does the EC50 read?
A: 71.9 µM

Q: `CN(C)c1ccc(O)c2c1C[C@H]1C[C@H]3[C@H](N(C)C)C(=O)C(C(N)=O)=C(O)[C@@]3(O)C(=O)C1=C2O` was tested. Which EC50 did it give?
A: 14.4 µM

Q: Which EC50 does the source give for `CC(C)CC1NC(=O)CNC1=O` (configuration not stated) here?
A: 0.0222 µM

Q: For `Nc1nc2ncc(CNc3ccc(C(=O)N[C@@H](CCC(=O)O)C(=O)O)cc3)nc2c(=O)[nH]1`, which EC50 is on record?
A: 785 µM

Q: With `CCC1(c2ccccc2)C(=O)NCNC1=O` as the compound, how does the EC50 read?
A: 741 µM

Q: `CCCC(C)C1(CC)C(=O)N=C(S)NC1=O` (configuration not stated) was tested. Which EC50 did it give?
A: 29.9 µM

Q: How did the EC50 turn out when `O=C1O[C@@H](CO)[C@H](O)[C@@H](O)[C@@H]1O` was run?
A: 9.33 µM

Q: For `COC(=O)C1=C(C)NC(C)=C(C(=O)OC)C1c1ccccc1[N+](=O)[O-]`, which EC50 is on record?
A: 28.9 µM

Q: Which EC50 does the source give for `CCn1cc(C(=O)O)c(=O)c2cc3c(cc21)OCO3` here?
A: 2.38 µM

Q: `C[C@]12C=CC(=O)C=C1CCC1C2C(=O)C[C@@]2(C)C1CC[C@]2(O)C(=O)CO` (some centres not stated) was tested. Which EC50 did it give?
A: 2610 µM

Q: With `CC(CCc1ccccc1)NC(C)C(O)c1ccc(O)cc1` (configuration not stated) as the compound, how does the EC50 read?
A: 76.9 µM

Q: `CC(N)Cc1ccc2c(c1)OCO2` (configuration not stated) was tested. Which EC50 did it give?
A: 2120 µM

Q: For `CC(NC(=O)C(NC(=O)OCc1ccccc1)C(C)C)C(=O)NC(CC(=O)O)C(=O)OC(F)F` (configuration not stated), which EC50 is on record?
A: 916 µM

Q: How did the EC50 turn out when `C1CNCCN1` was run?
A: 7130 µM

Q: For `CN1C(=O)CN=C(c2ccccc2)c2cc(Cl)ccc21`, which EC50 is on record?
A: 118 µM

Q: `COc1ccc2[nH]cc(CCNC(C)=O)c2c1` was tested. Which EC50 did it give?
A: 178 µM

Q: With `CCCC(=O)Nc1ccc(OCC(O)CNC(C)C)c(C(C)=O)c1` (configuration not stated) as the compound, how does the EC50 read?
A: 48.8 µM

Q: With `O=C(O)CCC(=O)OC[C@@H](NC(=O)C(Cl)Cl)[C@H](O)c1ccc([N+](=O)[O-])cc1` as the compound, how does the EC50 read?
A: 1.1 µM

Q: `O=C(OCC(O)CO)c1ccccc1Nc1ccnc2cc(Cl)ccc12` (configuration not stated) was tested. Which EC50 did it give?
A: 3200 µM

Q: `O=c1cc(-c2ccccc2)oc2cc(O)cc(O)c12` was tested. Which EC50 did it give?
A: 6.47 µM

Q: How did the EC50 turn out when `NCCC(O)C(=O)N[C@@H]1C[C@H](N)[C@@H](O[C@H]2O[C@H](CN)[C@@H](O)[C@H](O)[C@H]2N)[C@H](OC2O[C@H](CO)[C@H](O)[C@H]2O)[C@H]1O` (some centres not stated) was run?
A: 0.2 µM

Q: `CN(C)/N=N/c1nc[nH]c1C(N)=O` was tested. Which EC50 did it give?
A: 82 µM

Q: For `CN[C@@H]1[C@H](O)[C@H](NC)[C@H]2O[C@@]3(O)C(=O)C[C@@H](C)O[C@H]3OC2[C@H]1O` (some centres not stated), which EC50 is on record?
A: 0.0222 µM

Q: With `Cc1ccc(C(=O)C(C)CN2CCCCC2)cc1` (configuration not stated) as the compound, how does the EC50 read?
A: 19.1 µM
